Results reported in EPA's ToxValDB 9.5 (doi:10.2903/j.efsa.2010.1653).

Columns and labels:
Apis mellifera = details: acute; duration: 48 hours; oral; unspecified; mortality
Oryctolagus sp. = details: developmental; development
Canidae = details: chronic; duration: 1 years; oral; Dog Other; body weight
Daphnia magna = details: chronic/long-term; duration: 21 days; reproduction
Tagia sp. = details: acute; duration: 14 days; mortality
Typhlodromus pyri [1] = details: chronic/long-term; duration: 14 days; reproduction
Coturnix japonica = details: acute; oral; mortality
Bibionidae = details: chronic/long-term; duration: 28 days; development
Typhlodromus pyri [2] = assay: LR50; higher = less toxic; details: acute; duration: 7 days; mortality
[3] = reproduction developmental, reproduction

`Cc1cc(=O)[nH]o1` [Hymexazol] was tested. Which LD50 (Apis mellifera) did it give?
The LD50 was over 100 µg/piece.

And the LD50 (Rattus norvegicus; acute, oral, mortality)?
The LD50 was 1390 mg/kg.

What about the NOEL (Rattus norvegicus; [3]) of the same compound?
Its NOEL is 37 mg/kg-day.

What about the NOAEL (Oryctolagus sp.) of the same compound?
The NOAEL was 50 mg/kg-day.

And the LC50 (Oncorhynchus mykiss; acute, duration: 96 hours, mortality)?
The LC50 was over 100 µg/mL.

What about the NOEC (Oncorhynchus mykiss; chronic/long-term, duration: 28 days, body weight) of the same compound?
The NOEC was over 100 mg/L.

And the NOAEL (Canidae)?
The NOAEL was 17 mg/kg-day.

What about the NOEC (Daphnia magna) of the same compound?
The NOEC was 0.8 mg/L.

What about the LC50 (Tagia sp.) of the same compound?
The LC50 was 282 mg/kg.

What about the NOEC (Typhlodromus pyri [1]) of the same compound?
Its NOEC is 400 g/ha.

What about the LD50 (Coturnix japonica) of the same compound?
Its LD50 is over 1080 mg/kg.

What about the LC50 (Colinus virginianus; acute, oral, diet, mortality) of the same compound?
The LC50 was over 1470 mg/kg-day.

What about the NOEC (Colinus virginianus; [3]) of the same compound?
The NOEC was 86.5 mg/kg-day.

What about the NOEC (Bibionidae) of the same compound?
Its NOEC is 1.6 mg/L.

And the LR50 (Typhlodromus pyri [2])?
Its LR50 is 1110 g/ha.
